# Measurements published in PubChem BioAssay (NCI).
#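 Exposure lasted 48 hours, with cells grown in 96-well plates and compounds tested at five concentrations. GI50 is the concentration that inhibits growth by half. TGI marks complete inhibition of growth.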 Where a SMILES comes first, the peptide text is derived from it. Bridges are numbered along the chain shown (N, C = ends). [ ]: non-standard residue; d: D form. The star is where a group is joined. PhAc = O=C(Cc1ccccc1)*
# Legend:
# Experiment in all cases: NCI tumour cell line growth inhibition, 48 h
# 786-0 renal = test system: 786-0 renal
# BT-549 breast = test system: BT-549 breast
# HCC-2998 colon = test system: HCC-2998 colon
# KM12 colon = test system: KM12 colon
# M14 melanoma = test system: M14 melanoma
# MDA-MB-435 = test system: MDA-MB-435
# MDA-N = test system: MDA-N
# NCI-H522 lung = test system: NCI-H522 lung
# OVCAR-3 ovarian = test system: OVCAR-3 ovarian
# OVCAR-5 ovarian = test system: OVCAR-5 ovarian
# OVCAR-8 ovarian = test system: OVCAR-8 ovarian
# SK-MEL-28 melanoma = test system: SK-MEL-28 melanoma
# SNB-19 CNS = test system: SNB-19 CNS
# SW-620 colon = test system: SW-620 colon
# UACC-257 melanoma = test system: UACC-257 melanoma
# UACC-62 melanoma = test system: UACC-62 melanoma
# MALME-3M melanoma = test system: MALME-3M melanoma
# NCI-H226 lung = test system: NCI-H226 lung
Compound,TGI (786-0 renal) [µM],TGI (BT-549 breast) [µM],TGI (HCC-2998 colon) [µM],TGI (KM12 colon) [µM],TGI (M14 melanoma) [µM],TGI (MDA-MB-435) [µM],TGI (MDA-N) [µM],TGI (NCI-H522 lung) [µM],TGI (OVCAR-3 ovarian) [µM],TGI (OVCAR-5 ovarian) [µM],TGI (OVCAR-8 ovarian) [µM],TGI (SK-MEL-28 melanoma) [µM],TGI (SNB-19 CNS) [µM],TGI (SW-620 colon) [µM],TGI (UACC-257 melanoma) [µM],TGI (UACC-62 melanoma) [µM],TGI (MALME-3M melanoma) [µM],TGI (NCI-H226 lung) [µM],GI50 (SNB-19 CNS) [µM]
Cc1ccc2c3c(cnc2n1)C(=O)OCCN3C,> 100,> 100,> 100,> 100,> 100,> 100,> 100,> 100,> 100,> 100,> 100,> 100,> 100,> 100,> 100,> 100,–,–,–
Cc1[nH]n(C2=NCCN2)c(=O)c1C,> 100,> 100,–,> 100,> 100,> 100,–,> 100,> 100,> 100,> 100,–,> 100,> 100,> 100,> 100,> 100,> 100,–
CC1=C(C)CC(C#N)(C#N)C(C#N)(C#N)C1,> 8.08,–,> 10,> 10,> 10,–,> 7.22,> 2.72,9.68,> 10,> 9.66,> 10,> 10,> 5.42,> 10,> 10,> 10,> 10,–
CC1(C)O[C@H]([C@H](O)c2nnc3ccc(Cl)nn23)[C@@H]([C@H]2COC(C)(C)O2)O1,> 100,> 100,> 100,> 100,> 100,> 100,> 100,> 100,> 100,> 100,> 100,> 100,> 100,> 100,> 100,> 100,> 100,–,–
O=C1C=CC(=O)c2c1cc([N+](=O)[O-])c1ccoc21,3.35,30.8,41.6,31.9,11.3,26.2,35.4,4.4,70.2,35.4,> 72.3,60,39.6,> 100,32.4,29.4,–,> 62.7,–
Cc1cccc(NC(=S)Nc2ccc([N+](=O)[O-])cc2)n1,> 100,> 100,> 100,> 100,> 100,> 100,–,–,–,–,> 100,> 100,> 100,> 100,> 100,> 100,–,> 100,–
O=C(Cc1ccccc1)N[C@@H]1COC(=O)[C@@H]2CCCN2C(=O)[C@@H]2CCCN2C1=O (PhAc-[dS]-Pro-Pro; ester 1-C),> 100,–,> 100,> 100,> 100,> 100,> 100,–,> 100,> 100,> 100,> 100,> 100,> 100,> 100,> 100,> 100,–,–
Cc1ccc2nc(N/N=C/c3ccc(C)s3)cc(C)c2c1,11.3,–,17.3,16.1,23.3,23.1,20.4,18.9,17.4,22,31.3,28.9,27.2,29.4,19.9,23.6,32,31.7,–
COc1cc(C2SCC(=O)N2Cc2ccccc2)cc(OC)c1OC (stereo unspecified),> 100,> 100,> 100,> 100,> 100,> 100,> 100,> 100,> 100,> 100,> 100,> 100,> 100,> 100,> 100,> 100,–,> 100,–
COc1ccc(/C=N/n2c(=O)[nH]c3ccccc3c2=O)cc1,> 100,> 100,–,> 100,> 100,> 100,> 100,–,> 100,> 100,> 100,> 100,> 100,> 100,> 100,> 100,–,> 100,–
Cn1c2c(c3ccccc31)CCN1OCC=C[C@@H](C(=O)O)[C@@H]21,> 100,–,> 100,> 100,> 100,> 100,> 100,> 100,> 100,> 100,> 100,> 100,> 100,> 100,> 100,> 100,> 100,> 100,–
C=C[C@]1(O)CCC[C@]2(C)C(=O)CCC12C (stereo partly specified),> 100,–,> 100,> 100,> 100,> 100,> 100,> 100,> 100,> 100,> 100,> 100,> 100,> 100,> 100,> 100,> 100,> 100,–
Cc1ccc(/C=N/Nc2nc3ccccc3s2)s1,> 100,–,> 100,> 100,> 100,> 100,> 100,> 100,> 100,> 100,> 100,> 100,> 100,> 100,> 100,> 100,> 100,> 100,–
COc1ccc2c(c1)CCN=C2Cc1ccccc1CCCl,> 100,> 100,42.1,74.6,46.1,45.4,–,58.4,> 100,> 100,67.9,> 100,> 100,> 100,88.9,52.7,–,83.5,–
COc1ccc(N=Nc2c(C)c(C#N)c(=S)n(C3OC(COC(C)=O)C(OC(C)=O)C(OC(C)=O)C3OC(C)=O)c2C)cc1 (stereo unspecified),53,> 100,> 100,> 100,> 100,–,> 100,–,> 100,> 100,–,> 100,> 100,> 100,> 100,> 100,> 100,–,–
Cc1n[n+](CC(=O)c2ccccc2)c2sc(N)nn12,> 100,> 100,–,> 100,> 100,> 100,> 100,> 100,> 100,> 100,> 100,> 100,> 100,> 100,> 100,> 100,> 100,> 100,–
CCCc1cc(=O)oc2c(C=O)c(O)cc(O)c12,> 100,77.1,33.6,61.2,52.7,55.3,75.6,41.9,44.3,74.4,62,62.8,87.1,56.4,65.2,38.4,42.1,–,–
CCOC(=O)[C@@H]1OC(c2ccccc2)O[C@H]1C(=O)OCC,> 100,–,–,> 100,> 100,> 100,> 100,–,> 100,> 100,> 100,> 100,> 100,> 100,> 100,> 100,> 100,> 100,–
O=C1Oc2ccccc2C(=O)/C1=C/N1C(=O)/C(=C/c2ccc3c(c2)OCO3)SC1=S,> 54.8,–,28.9,32,31.9,39.7,77.7,45.2,10.9,30.2,40.9,36.8,37.1,43.5,51.5,> 47.7,44.8,34.5,12.6
O=c1c(-c2c(-c3ccccc3)oc3ccc(Cl)cc3c2=O)c(-c2ccccc2)oc2ccc(Cl)cc12,> 100,–,> 100,> 100,> 100,> 100,> 100,> 100,> 100,> 100,> 100,> 100,> 100,> 100,> 100,> 100,> 100,> 100,–
CN(C)C(=S)N1C(=S)N(c2ccccc2)C(=Nc2ccccc2)C1=Nc1ccccc1,> 100,–,> 100,> 100,–,> 100,> 100,> 100,–,> 100,> 100,> 100,> 100,> 100,> 100,> 100,> 100,> 100,–
Oc1cccc(-c2ccc3c4c2O[C@H]2c5[nH]c6ccccc6c5C[C@@]5(O)[C@@H](C3)N(CC3CC3)CC[C@]425)c1,2.97,23,–,3.5,3.07,3.1,3.05,–,3.42,4.3,3.23,–,3,6.15,–,–,3.38,28.9,–
COC(=O)C(Cc1ccccc1)NC(=O)C(CCC(=O)OCc1ccccc1)NC(=O)OC(C)(C)C (stereo unspecified),> 100,> 100,> 100,> 100,> 100,> 100,–,> 100,> 100,> 100,> 100,> 100,> 100,> 100,> 100,> 100,> 100,> 100,–
Cc1c(C#N)c(N)[nH]c(=S)c1C#N,> 100,> 100,> 100,> 100,–,–,> 100,> 100,> 100,> 100,> 100,> 100,> 100,> 100,> 100,> 100,> 100,> 100,–
CCCCCN1CCN(c2ncccn2)CC1,> 100,–,> 100,> 100,> 100,> 100,> 100,> 100,> 100,> 100,> 100,> 100,> 100,> 100,> 100,> 100,> 100,–,–
CC1(C)C(C#N)=[N+]([O-])C(C)(C)N1O,> 100,–,> 100,> 100,> 100,> 100,> 100,–,> 100,> 100,> 100,> 100,> 100,> 100,> 100,> 100,> 100,> 100,–
CCN1C(=S)n2cccc2C1CC(=O)c1ccc(Cl)cc1 (stereo unspecified),> 100,> 100,> 100,> 100,> 100,> 100,> 100,> 100,> 100,> 100,> 100,> 100,> 100,> 100,> 100,> 100,> 100,–,–
O=C(NCCc1ccccc1)[C@H]1CCCC[C@@H]1CCO,> 100,> 100,> 100,> 100,> 100,> 100,> 100,> 100,> 100,> 100,> 100,> 100,–,> 100,> 100,> 100,–,> 100,–
CC(=O)OCC1OC(n2c(C#N)cc(=O)[nH]c2=O)CC1OC(C)=O (stereo unspecified),> 100,> 100,–,> 100,> 100,> 100,> 100,> 100,> 100,> 100,> 100,> 100,> 100,> 100,> 100,> 100,> 100,> 100,–
